Measurements as given in paper PMC10266261, “A High-Throughput Approach to Identify Specific Neurotoxicants / Developmental Toxicants in Human Neuronal Cell Function Assays” (ALTEX, 2018).
Like-named read-outs stand apart in the source and are kept apart here.

How the values were obtained:
LUHMES cells = test: cells; assay type: cell-based, human; conditions: for classification / outcome after hit confirmation or re-testing (EC50 prediction model): EC50 ratio V/NA ≥ 4 specific, < 4 cytotoxic; for classification in the NeuriTox screen: hit = NA decreased at concentrations not affecting viability; for classification in the NeuriTox screen / LOAEL for neurite area (lowest tested concentration with significant reduction): screen; for ratio EC50(V)/EC50(NA): specificity threshold 4
Experimental: For the NeuriTox test (= UKN4), LUHMES (Lund human mesencephalic) cells were characterized and cultured as described in detail earlier ([Krug et al., 2013]; [Lotharius et al., 2005]; [Scholz et al., 2011]). Briefly, cells were maintained in proliferation medium (PM: AdvDMEM/F12 supplemented with 2 mM glutamine, 1x N2 supplement and 40 ng/ml fibroblast growth factor-2) in PLO/fibronectin coated flasks (50 μg/ml poly-L-ornithine (PLO) and 1 μg/ml fibronectin). For differentiation, cells were seeded at a density of 46,000 cells/cm^2 in PM. After 24 h, they were switched to differentiation medium (DM) containing AdvDMEM/F12 supplemented with 2 mM glutamine, 1x N2 supplement, 2.25 μM tetracycline, 1 mM dibutyryl 3’,5’-cyclic adenosine monophosphate (cAMP), and 2 ng/ml recombinant human glial cell derived neurotrophic factor (GDNF).
For the NeuriTox test, LUHMES cells were differentiated for 48 h and seeded into 96 well plates at a density of 100,000 cells/cm^2 in a volume of 90 μl DM without cAMP and GDNF. Treatment was initiated applying 10 μl of a 10x concentrated treatment solution one hour after seeding. At 24 h after treatment, staining mix (SM) was applied (final concentrations: 1 μg/ml H-33342, 1 μM calcein-AM).
(§1) Image acquisition was performed with an ArrayScan VTI HCS (high content imaging) microscope (Cellomics, Waltham, MA, USA).
The procedure was applied as detailed earlier ([Hoelting et al., 2016]; [Stiegler et al., 2011]). After automated imaging, an algorithm was applied that identified the neuronal somata (based on identified nuclei) and subtracted the somatic area from the total neuronal area to obtain the neurite area (NA), i.e., the number of pixels per field covered by neurites. Viability analysis was performed on the same pictures using combined information from H-33342 and calcein channels. Cells with normal-sized nuclei that were calcein-positive were counted as live cells, whereas H-33342 single-positive cells were counted as dead cells. Viability (V) was expressed as percentage of live cells relative to control.
(§2) Neurite area (NA) and viability (V) were always expressed as percentage of the DMSO control. In a first step, matched technical replicates were averaged. […] Curve fitting was performed employing a 4-parameter log-logistic function with least squares fit. The upper asymptote of the fit was forced to 100%, the lower asymptote was variable. The variation of DMSO controls was calculated from pooled values of DMSO controls over several experiments.
For calculation of the benchmark concentration values (BMC), a benchmark response (BMR) of three standard deviations of DMSO solvent controls of all assay plates (= “3 x noise level”) was used. […] To identify specific effects on neurite outgrowth, the EC50 ratio of EC50(viability)/EC50(neurite area) was calculated. The NeuriTox test system has a specificity threshold ratio of 4, the PeriTox test system has one of 3 ([Hoelting et al., 2016]; [Krug et al., 2013]).
If V was not affected at the highest tested concentration (HTC), then 4 x HTC was used as surrogate EC50(V) (marked with ♦; for EC25 calculation, the HTC was doubled in this case) ([Krug et al., 2013]).
For the actual screening procedure, a defined workflow was established that contained several pre-determined decision points. All compounds were tested at 1:1000 dilutions of their stock concentration, and at subsequent 3-fold dilution levels. For most compounds, the stock was 20 mM, so that the test concentrations were 20 μM, 6.7 μM, 2.2 μM, 0.7 μM, 0.25 μM, 82 nM, 27 nM, 9 nM, 3 nM, and 1 nM. For 2,2’,4,4’,5,5’-hexabromodiphenyl-ether, chrysene, dibenz(a,h)anthracene, bis(tributyltin) oxide, benzo[g,h,i]perylene, and 2,3,7,8-tetrachlorodibenzo-p-dioxin lower stock concentrations were used.

cardiomyocytes = conditions: specific = cardio-physiologic parameters affected after 30 min at three-fold lower concentration than viability and no effect on viability after 24 h; ref Sirenko et al., 2017; cited from earlier work
[1] = tested on: immature human dorsal root ganglia neurons; test: cells; assay type: cell-based; conditions: for classification in the PeriTox screen: three independent screen runs, up to 20 μM; for ratio EC50(V)/EC50(NA): ≥ 3 = specific hit
Experimental: The PeriTox test (= UKN5) is based on cells differentiated from the H9 human embryonic stem cell (hESC) line (WA09 line), which was obtained from WiCell (Madison, WI, USA). The import of cells and the experiments were authorized under license no. 170–79-1–4-27 (Robert Koch Institute, Berlin, Germany).
After one hour, 25 μl PDM with 4x concentrated serial dilutions of the test compounds was added to the cells. At 23 h after treatment, the cells were stained with SM and incubated for one additional hour at 37°C.
as §1
After automated imaging, an algorithm was applied that identified the neuronal somata (based on identified nuclei) and subtracted the somatic area from the total neuronal area to obtain the neurite area (NA), i.e., the number of pixels per field covered by neurites. […] Viability (V) was expressed as percentage of live cells relative to control.
as §2
For calculation of the benchmark concentration values (BMC), a benchmark response (BMR) of three standard deviations of DMSO solvent controls of all assay plates (= “3 x noise level”) was used. […] To identify specific effects on neurite outgrowth, the EC50 ratio of EC50(viability)/EC50(neurite area) was calculated.
This method uses human immature dorsal root ganglia neurons (iDRG) that are produced from pluripotent stem cells that are still in a phase of neurite growth. Like in the NeuriTox assay, exposure to toxicants in this test is for 24 h, and readouts for viability (V) and neurite area (NA) are also conducted in a similar way (Fig. 7A).

[2] = Homo sapiens, hit confirmation / re-testing, adjusted concentration range, 24 h, read-out: EC50(NA), neurite area
[3] = Homo sapiens, Neuron, hit confirmation, 24 h, read-out: EC50(NA), neurite area
[4] = Homo sapiens, Neuron, hit confirmation, V not affected at HTC: 4 x HTC used as surrogate, read-out: EC50(V), viability, surrogate marked ♦
[5] = Homo sapiens, 24 h, read-out: EC50(NA), neurite area
[6] = screen data, 24 h exposure, up to 20 μM, read-out: EC50(NA), neurite area
[7] = screen data, 24 h exposure, up to 20 μM, read-out: EC50(V), viability

## Brc1ccc(Oc2cc(Br)c(Br)cc2Br)c(Br)c1 [PBDE, 2,2’,4,4’,5’-pentabromodiphenylether]
LUHMES cells
  classification / outcome after hit confirmation or re-testing (EC50 prediction model): unspecific cytotoxicants

## Oc1c(Cl)cc(Cl)c(Cl)c1Cc1c(O)c(Cl)cc(Cl)c1Cl [Hexachlorophene]
LUHMES cells; up to 20 μM, 24 h
  classification in the NeuriTox screen: cytotoxic

## COc1ccc2cc3[n+](cc2c1OC)CCc1cc2c(cc1-3)OCO2 [Berberine chloride]
cardiomyocytes
  classification in the cardiotoxicity test method: generally cytotoxic
LUHMES cells; [2]
  EC50: 23.9 µM
LUHMES cells; Homo sapiens, hit confirmation, adjusted concentration range, 24 h, read-out: EC50(V), viability
  EC50: 126 µM
LUHMES cells; 24 h
  LOAEL for neurite area (lowest tested concentration with significant reduction): 20 µM
LUHMES cells; up to 20 μM, 24 h
  classification in the NeuriTox screen: active hit compounds
[1]; [3]
  EC50: 11.6 µM
[1]; [4]
  EC50: 165 µM
[1]
  classification in the PeriTox screen: active hit compounds

## CNC(=O)Oc1cccc2ccccc12 [Carbaryl]
cardiomyocytes
  classification in the cardiotoxicity test method: specific
LUHMES cells; [5]
  EC50: 31 µM
LUHMES cells; Homo sapiens, 24 h, read-out: EC50(V), viability
  EC50: 130 µM
LUHMES cells; 24 h
  LOAEL for neurite area (lowest tested concentration with significant reduction): 20 µM
LUHMES cells; up to 20 μM, 24 h
  classification in the NeuriTox screen: active hit compounds
[1]
  classification in the PeriTox screen: active hit compounds

## CCN(CC)C(=S)SSC(=S)N(CC)CC [Tetraethylthiuram disulfide]
LUHMES cells; [6]
  EC50: 3.7 µM
LUHMES cells; [7]
  EC50: 2.9 µM
LUHMES cells; screen data
  ratio EC50(V)/EC50(NA): 0.8

## Brc1ccc(Oc2ccc(Br)cc2Br)c(Br)c1 [TBDE, 2,2’,4,4’-tetrabromodiphenylether]
LUHMES cells
  classification / outcome after hit confirmation or re-testing (EC50 prediction model): unspecific cytotoxicants

## C=C(C)[C@H]1Cc2c(ccc3c2O[C@@H]2COc4cc(OC)c(OC)cc4[C@@H]2C3=O)O1 [Rotenone]
cardiomyocytes
  classification in the cardiotoxicity test method: generally cytotoxic
LUHMES cells; [5]
  EC50: 0.5 µM
LUHMES cells; Homo sapiens, read-out: EC50(V), viability, surrogate marked ♦
  EC50: 40 µM
LUHMES cells; up to 20 μM, 24 h
  classification in the NeuriTox screen: active hit compounds
[1]; Homo sapiens, Neuron, 24 h, read-out: EC50(NA), neurite area
  EC50: 0.05 µM
[1]; Homo sapiens, Neuron, read-out: EC50(V), viability, surrogate marked ♦
  EC50: 16.5 µM
[1]; hit confirmation
  ratio EC50(V)/EC50(NA): 330
[1]
  classification in the PeriTox screen: active hit compounds

## CCCCNC(=O)OCC#CI [Iodocarb]
LUHMES cells; Homo sapiens, screen data, 24 h exposure, up to 20 μM, read-out: EC50(NA), neurite area
  EC50: 0.9 µM
LUHMES cells; Homo sapiens, screen data, 24 h exposure, up to 20 μM, read-out: EC50(V), viability
  EC50: 1.2 µM
LUHMES cells; screen data
  ratio EC50(V)/EC50(NA): 1.3
[1]; [3]
  EC50: 7.8 µM
[1]; [4]
  EC50: 66 µM
[1]
  classification in the PeriTox screen: active hit compounds

## COc1cc2c(c(OC)c1OC)-c1ccc(OC)c(=O)cc1[C@@H](NC(C)=O)CC2 [Colchicine]
LUHMES cells; 24 h
  LOAEL for neurite area (lowest tested concentration with significant reduction): 0.027 µM
LUHMES cells; up to 20 μM, 24 h
  classification in the NeuriTox screen: active hit compounds
[1]
  classification in the PeriTox screen: active hit compounds

## O=C1N[C@@H]2C(=C[C@H](O)[C@@H](O)[C@H]2O)c2cc3c(c(O)c21)OCO3 [narciclasine]
LUHMES cells; 50 nM, 24 h, positive control
  neurite area vs solvent control: significantly reduced

## CCC[CH2][Sn]([CH2]CCC)([CH2]CCC)[O][Sn]([CH2]CCC)([CH2]CCC)[CH2]CCC [bis(tributyltin)oxide]
LUHMES cells; up to 20 μM, 24 h
  classification in the NeuriTox screen: cytotoxic

## Cl.NCCc1cc(O)c(O)cc1O [6-Hydroxydopamine hydrochloride]
cardiomyocytes
  classification in the cardiotoxicity test method: specific

## CC(C)(C)C(O)(CCc1ccc(Cl)cc1)Cn1cncn1 (centres unmarked) [tebuconazole]
LUHMES cells; [2]
  EC50: 142 µM
LUHMES cells; Homo sapiens, re-testing, extended concentration range, read-out: toxicity EC50
  EC50: 238 µM

## CCCC(CCC)C(=O)O [VPA, valproic acid]
[1]
  classification / outcome after hit confirmation (EC50 ratio viability/neurite area ≥ 3): cytotoxic

## CC/C(=C(/CC)c1ccc(O)cc1)c1ccc(O)cc1 [Diethylstilbestrol]
LUHMES cells; up to 20 μM, 24 h
  classification in the NeuriTox screen: active hit compounds
[1]
  classification in the PeriTox screen: active hit compounds

## O=P(Oc1ccccc1)(Oc1ccccc1)Oc1ccccc1 [Triphenyl phosphate]
LUHMES cells
  classification / outcome after hit confirmation or re-testing (EC50 prediction model): clearly non-toxic at concentrations up to 20 μM
LUHMES cells; Homo sapiens, read-out: toxicity EC50
  EC50: > 200 µM

## C=CC(N)=O [Acrylamide]
[1]
  classification / outcome after hit confirmation (EC50 ratio viability/neurite area ≥ 3): specific PeriTox hit
[1]; hit confirmation
  ratio EC50(V)/EC50(NA): 3.2
[1]; tested at high concentration, 24 h, read-out: EC50(NA), neurite area
  EC50: 2300 µM

## O=C1C2CC=CCC2C(=O)N1SC(Cl)(Cl)Cl (centres unmarked) [Captan]
LUHMES cells
  classification / outcome after hit confirmation or re-testing (EC50 prediction model): cytotoxicant with relatively low potency

## CC(C)(c1ccc(O)cc1)c1ccc(O)cc1 [BPA, bisphenol A]
LUHMES cells
  classification / outcome after hit confirmation or re-testing (EC50 prediction model): no effect up to 100 μM

## C[n+]1ccc(-c2ccccc2)cc1.[I-] [MPP^+, 1-methyl-4-phenylpyridinium iodide]
LUHMES cells; [2]
  EC50: 80 µM
LUHMES cells; up to 20 μM, 24 h
  classification in the NeuriTox screen: active hit compounds
[1]
  classification / outcome after hit confirmation (EC50 ratio viability/neurite area ≥ 3): not active at all

## [CH3][Hg][Cl] [Methylmercury (II) chloride]
LUHMES cells; [6]
  EC50: 0.09 µM
LUHMES cells; [7]
  EC50: 0.16 µM
LUHMES cells; screen data
  ratio EC50(V)/EC50(NA): 1.8
[1]
  classification in the PeriTox screen: active hit compounds
